Assay results from ChEMBL document CHEMBL4715821, “Discovery of 4-ethoxy-7H-pyrrolo[2,3-d]pyrimidin-2-amines as potent, selective and orally bioavailable LRRK2 inhibitors” (Bioorg Med Chem Lett, 2018).
Converted amounts (≈) assume the structure as drawn.

What was measured:
[1] = target: T1, Leucine-rich repeat serine/threonine-protein kinase 2 (Homo sapiens, UniProt Q5S007); assay: Inhibition of recombinant His6-Tev-LRRK2 (1326 to 2527 residues) (unknown origin) using LRRKtide as substrate preincubated for 30 mins followed by substrate addition and measured after 2 hrs in presence of ATP by TR-FRET assay
T1 sequence (Q5S007 whole entry, the tested form may be a part): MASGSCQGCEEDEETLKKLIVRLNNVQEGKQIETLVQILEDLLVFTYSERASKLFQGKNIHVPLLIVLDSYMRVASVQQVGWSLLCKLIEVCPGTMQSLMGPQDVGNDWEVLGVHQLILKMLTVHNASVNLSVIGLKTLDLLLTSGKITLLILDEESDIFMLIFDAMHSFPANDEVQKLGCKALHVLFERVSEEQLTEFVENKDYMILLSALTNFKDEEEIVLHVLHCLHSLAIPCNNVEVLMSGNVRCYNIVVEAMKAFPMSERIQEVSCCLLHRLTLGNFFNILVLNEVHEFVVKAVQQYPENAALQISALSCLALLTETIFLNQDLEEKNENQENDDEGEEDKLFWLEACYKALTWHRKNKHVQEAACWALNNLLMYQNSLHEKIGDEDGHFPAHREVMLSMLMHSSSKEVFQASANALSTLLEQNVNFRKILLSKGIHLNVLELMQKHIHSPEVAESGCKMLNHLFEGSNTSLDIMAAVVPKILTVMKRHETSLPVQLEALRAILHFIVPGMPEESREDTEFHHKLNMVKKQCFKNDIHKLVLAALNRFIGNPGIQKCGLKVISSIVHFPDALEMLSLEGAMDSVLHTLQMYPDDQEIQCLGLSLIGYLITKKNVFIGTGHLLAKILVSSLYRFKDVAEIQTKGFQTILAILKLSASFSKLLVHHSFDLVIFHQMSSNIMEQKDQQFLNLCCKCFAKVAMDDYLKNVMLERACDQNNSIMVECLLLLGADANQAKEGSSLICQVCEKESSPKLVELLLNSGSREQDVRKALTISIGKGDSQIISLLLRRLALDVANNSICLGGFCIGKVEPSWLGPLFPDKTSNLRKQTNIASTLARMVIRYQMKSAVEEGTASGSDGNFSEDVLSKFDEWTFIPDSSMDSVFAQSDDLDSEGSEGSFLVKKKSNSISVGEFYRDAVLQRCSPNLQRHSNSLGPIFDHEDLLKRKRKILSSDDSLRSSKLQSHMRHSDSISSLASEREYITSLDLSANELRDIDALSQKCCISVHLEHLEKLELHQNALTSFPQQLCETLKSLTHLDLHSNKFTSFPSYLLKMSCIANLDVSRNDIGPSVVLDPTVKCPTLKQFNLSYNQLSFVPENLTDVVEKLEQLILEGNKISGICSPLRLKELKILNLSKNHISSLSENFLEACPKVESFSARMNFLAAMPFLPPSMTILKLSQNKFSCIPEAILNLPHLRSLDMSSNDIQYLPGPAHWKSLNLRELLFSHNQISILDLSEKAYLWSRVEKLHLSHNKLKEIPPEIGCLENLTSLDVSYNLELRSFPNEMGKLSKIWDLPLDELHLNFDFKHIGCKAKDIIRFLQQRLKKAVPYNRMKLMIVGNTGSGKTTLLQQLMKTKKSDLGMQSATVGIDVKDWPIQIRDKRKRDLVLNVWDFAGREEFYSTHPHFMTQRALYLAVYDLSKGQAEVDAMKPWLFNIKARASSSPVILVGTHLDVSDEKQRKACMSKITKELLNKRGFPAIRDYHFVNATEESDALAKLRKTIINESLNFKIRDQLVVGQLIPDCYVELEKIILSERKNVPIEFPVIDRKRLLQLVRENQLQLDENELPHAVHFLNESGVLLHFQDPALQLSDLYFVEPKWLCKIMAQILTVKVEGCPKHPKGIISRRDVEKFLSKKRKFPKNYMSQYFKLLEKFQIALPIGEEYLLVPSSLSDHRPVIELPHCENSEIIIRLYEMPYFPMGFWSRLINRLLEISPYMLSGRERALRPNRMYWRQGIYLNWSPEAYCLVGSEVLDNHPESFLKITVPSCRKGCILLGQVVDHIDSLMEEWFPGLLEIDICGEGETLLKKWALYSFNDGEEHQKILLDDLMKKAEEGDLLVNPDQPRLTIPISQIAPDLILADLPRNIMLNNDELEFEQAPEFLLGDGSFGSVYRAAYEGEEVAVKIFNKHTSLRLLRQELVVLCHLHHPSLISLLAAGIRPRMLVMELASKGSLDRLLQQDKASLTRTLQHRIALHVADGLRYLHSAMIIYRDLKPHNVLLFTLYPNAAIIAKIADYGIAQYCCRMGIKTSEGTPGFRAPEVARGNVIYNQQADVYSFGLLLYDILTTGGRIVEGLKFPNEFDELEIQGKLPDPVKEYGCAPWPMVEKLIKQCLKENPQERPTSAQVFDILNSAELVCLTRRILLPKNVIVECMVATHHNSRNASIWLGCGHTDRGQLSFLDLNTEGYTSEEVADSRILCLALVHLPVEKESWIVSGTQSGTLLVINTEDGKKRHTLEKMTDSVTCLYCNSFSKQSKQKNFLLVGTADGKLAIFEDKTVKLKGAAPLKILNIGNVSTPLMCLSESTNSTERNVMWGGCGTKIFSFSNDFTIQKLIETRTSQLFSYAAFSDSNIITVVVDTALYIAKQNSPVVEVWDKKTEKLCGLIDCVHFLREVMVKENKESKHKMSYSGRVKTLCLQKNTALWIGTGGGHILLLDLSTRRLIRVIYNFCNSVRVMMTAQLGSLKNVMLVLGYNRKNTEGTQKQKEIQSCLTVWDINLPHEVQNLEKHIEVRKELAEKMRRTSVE

[2] = target: T1, Leucine-rich repeat serine/threonine-protein kinase 2; assay: Inhibition of recombinant full-length LRRK2 (unknown origin) expressed in SH-SY5Y cells assessed as reduction in Ser935 phosphorylation after 60 mins by Alpha Screen assay; assay type: cell-based
[3] = Metabolic stability in human liver microsomes assessed as intrinsic clearance; assay type: ADME, Microsome
[4] = Lipophilicity, logD of compound at pH 7.4; details: buffer
[5] = Solubility of the compound in FaSSIF measured after 4 hrs; assay type: physicochemical
[6] = Permeability ratio across apical side to basolateral side in MDCK2 cells transfected with Bacmam virus containing human BCRP at 3 uM after 90 mins in presence or absence of GF120918 by transwell assay; assay type: ADME, cell-based, Canis lupus familiaris; details: dog, mdck-ii, 1.5 h
[7] = target: T2, Interleukin-1 receptor-associated kinase 4 (Homo sapiens) (UniProt Q9NWZ3); assay: Inhibition of IRAK4 (unknown origin) at 1 uM by radioactivity-based enzymatic assay relative to control
T2 sequence (whole entry): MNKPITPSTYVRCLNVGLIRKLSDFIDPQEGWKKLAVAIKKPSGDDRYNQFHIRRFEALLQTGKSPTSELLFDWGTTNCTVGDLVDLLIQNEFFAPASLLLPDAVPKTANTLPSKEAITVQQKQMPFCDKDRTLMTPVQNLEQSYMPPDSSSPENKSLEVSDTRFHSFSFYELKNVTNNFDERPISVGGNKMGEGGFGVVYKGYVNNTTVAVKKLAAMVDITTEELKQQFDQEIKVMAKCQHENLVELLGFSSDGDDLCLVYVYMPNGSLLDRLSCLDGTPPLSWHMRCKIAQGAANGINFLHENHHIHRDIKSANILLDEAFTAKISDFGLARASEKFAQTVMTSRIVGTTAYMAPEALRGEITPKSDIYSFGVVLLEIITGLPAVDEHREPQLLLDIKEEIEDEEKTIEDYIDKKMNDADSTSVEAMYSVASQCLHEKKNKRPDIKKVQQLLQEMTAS

[8] = target: Tyrosine-protein kinase SYK (Homo sapiens) (UniProt P43405); assay: Inhibition of SYK (unknown origin) at 1 uM by radioactivity-based enzymatic assay relative to control
[9] = target: T3, Mitogen-activated protein kinase kinase kinase kinase 3 (Homo sapiens) (UniProt Q8IVH8); assay: Inhibition of MAP4K3 (unknown origin) at 1 uM by radioactivity-based enzymatic assay relative to control
T3 sequence (whole entry): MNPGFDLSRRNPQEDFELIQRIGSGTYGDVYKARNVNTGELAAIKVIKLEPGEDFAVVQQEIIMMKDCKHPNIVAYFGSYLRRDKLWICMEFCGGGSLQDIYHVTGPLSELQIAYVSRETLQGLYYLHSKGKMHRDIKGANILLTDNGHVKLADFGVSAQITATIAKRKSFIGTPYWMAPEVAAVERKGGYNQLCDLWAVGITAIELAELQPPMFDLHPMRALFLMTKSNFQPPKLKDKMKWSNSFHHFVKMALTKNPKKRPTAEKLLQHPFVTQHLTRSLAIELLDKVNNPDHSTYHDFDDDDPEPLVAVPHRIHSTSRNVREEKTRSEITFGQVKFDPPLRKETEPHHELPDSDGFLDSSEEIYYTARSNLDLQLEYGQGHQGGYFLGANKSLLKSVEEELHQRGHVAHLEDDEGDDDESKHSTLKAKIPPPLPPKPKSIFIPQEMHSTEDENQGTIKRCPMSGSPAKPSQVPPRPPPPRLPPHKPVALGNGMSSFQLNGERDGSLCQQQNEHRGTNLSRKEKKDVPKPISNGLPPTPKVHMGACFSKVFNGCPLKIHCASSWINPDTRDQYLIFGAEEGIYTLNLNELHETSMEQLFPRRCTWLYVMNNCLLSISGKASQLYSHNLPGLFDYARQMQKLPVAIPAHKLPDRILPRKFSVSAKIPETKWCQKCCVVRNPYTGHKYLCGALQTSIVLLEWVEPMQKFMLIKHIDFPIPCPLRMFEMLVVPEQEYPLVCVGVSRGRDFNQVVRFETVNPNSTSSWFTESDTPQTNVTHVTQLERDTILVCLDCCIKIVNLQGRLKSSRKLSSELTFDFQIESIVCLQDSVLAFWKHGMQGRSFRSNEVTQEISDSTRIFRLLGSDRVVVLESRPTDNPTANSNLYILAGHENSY

[10] = Artificial membrane permeability by PAMPA method; assay type: ADME; details: read-out: permeability
[11] = target: Tyrosine-protein kinase JAK2 (Homo sapiens) (UniProt O60674); assay: Inhibition of JAK2 (unknown origin) at 1 uM by radioactivity-based enzymatic assay relative to control
Tyrosine-protein kinase JAK2 (Homo sapiens), sequence (O60674 whole entry): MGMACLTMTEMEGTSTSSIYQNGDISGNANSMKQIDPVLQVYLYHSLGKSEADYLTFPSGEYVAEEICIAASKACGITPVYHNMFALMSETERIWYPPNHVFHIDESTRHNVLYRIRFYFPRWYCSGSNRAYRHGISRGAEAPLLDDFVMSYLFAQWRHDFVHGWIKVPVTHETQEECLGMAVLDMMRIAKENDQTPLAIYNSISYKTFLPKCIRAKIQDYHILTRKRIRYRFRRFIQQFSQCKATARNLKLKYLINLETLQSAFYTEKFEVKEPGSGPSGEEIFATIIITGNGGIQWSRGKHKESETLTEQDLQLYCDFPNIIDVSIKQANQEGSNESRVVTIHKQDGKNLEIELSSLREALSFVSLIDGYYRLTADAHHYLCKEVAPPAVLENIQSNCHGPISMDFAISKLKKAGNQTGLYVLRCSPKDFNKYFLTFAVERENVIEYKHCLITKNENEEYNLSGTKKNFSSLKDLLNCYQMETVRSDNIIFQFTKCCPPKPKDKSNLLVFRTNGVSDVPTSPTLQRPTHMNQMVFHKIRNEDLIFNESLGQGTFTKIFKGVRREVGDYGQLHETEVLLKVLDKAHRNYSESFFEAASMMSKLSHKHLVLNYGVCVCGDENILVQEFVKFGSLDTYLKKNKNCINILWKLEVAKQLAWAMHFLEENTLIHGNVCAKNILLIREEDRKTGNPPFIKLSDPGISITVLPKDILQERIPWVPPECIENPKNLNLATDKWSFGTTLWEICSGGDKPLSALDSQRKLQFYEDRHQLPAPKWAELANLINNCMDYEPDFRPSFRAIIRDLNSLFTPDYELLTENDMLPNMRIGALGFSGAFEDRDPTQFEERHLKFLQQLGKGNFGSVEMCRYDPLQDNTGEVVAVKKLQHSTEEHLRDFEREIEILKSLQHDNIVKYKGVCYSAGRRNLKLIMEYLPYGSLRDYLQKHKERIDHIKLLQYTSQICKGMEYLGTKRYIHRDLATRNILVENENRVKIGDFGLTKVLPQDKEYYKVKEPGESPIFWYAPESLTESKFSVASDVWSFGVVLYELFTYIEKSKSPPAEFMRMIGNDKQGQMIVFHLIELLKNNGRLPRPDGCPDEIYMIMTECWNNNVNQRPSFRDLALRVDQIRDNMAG

[12] = target: Mitogen-activated protein kinase kinase kinase 9 (Homo sapiens) (UniProt P80192); assay: Inhibition of MLK1 (unknown origin) at 1 uM by radioactivity-based enzymatic assay relative to control
Mitogen-activated protein kinase kinase kinase 9 (Homo sapiens), sequence (P80192 whole entry, looked up): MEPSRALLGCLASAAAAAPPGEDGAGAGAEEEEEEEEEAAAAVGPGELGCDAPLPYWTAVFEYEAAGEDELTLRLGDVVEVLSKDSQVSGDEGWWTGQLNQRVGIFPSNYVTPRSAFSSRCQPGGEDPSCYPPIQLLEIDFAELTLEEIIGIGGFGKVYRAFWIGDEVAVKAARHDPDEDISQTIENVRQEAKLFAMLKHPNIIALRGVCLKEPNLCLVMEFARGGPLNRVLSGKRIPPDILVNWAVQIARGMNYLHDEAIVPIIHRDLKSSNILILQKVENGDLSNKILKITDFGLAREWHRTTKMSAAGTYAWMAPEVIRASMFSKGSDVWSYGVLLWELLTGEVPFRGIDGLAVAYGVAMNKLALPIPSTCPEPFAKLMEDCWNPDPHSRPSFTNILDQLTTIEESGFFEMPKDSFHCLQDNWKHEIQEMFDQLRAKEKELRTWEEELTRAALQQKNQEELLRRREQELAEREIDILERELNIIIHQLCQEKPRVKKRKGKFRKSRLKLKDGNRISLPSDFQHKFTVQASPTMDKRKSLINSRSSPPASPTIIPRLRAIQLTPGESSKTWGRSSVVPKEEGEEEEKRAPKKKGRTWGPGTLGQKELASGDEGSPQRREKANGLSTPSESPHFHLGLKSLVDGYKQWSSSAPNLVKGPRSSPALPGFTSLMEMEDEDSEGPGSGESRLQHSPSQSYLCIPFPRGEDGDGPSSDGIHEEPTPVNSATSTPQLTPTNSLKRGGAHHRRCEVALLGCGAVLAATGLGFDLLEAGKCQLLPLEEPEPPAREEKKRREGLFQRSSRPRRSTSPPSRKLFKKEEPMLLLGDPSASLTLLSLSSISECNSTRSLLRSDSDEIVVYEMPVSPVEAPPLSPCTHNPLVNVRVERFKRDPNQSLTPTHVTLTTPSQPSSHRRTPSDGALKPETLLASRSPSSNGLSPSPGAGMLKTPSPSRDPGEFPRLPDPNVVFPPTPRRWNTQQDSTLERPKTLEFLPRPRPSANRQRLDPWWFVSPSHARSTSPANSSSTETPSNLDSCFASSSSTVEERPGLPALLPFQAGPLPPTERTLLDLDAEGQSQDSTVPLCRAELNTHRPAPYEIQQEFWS

[13] = Unbound fraction in Han-Wistar rat brain at 2 mg/kg, po; assay type: ADME, organism-based
[14] = Dose normalized AUC (0 to t) in Han-Wistar rat blood at 2 mg/kg, po measured up to 7 hrs by UPLC-MS/MS analysis; assay type: ADME, organism-based; details: in vivo
[15] = Dose normalized AUC (0 to t) in Han-Wistar rat brain at 2 mg/kg, po measured up to 7 hrs by UPLC-MS/MS analysis; assay type: ADME, organism-based; details: in vivo
[16] = Ratio of total drug concentration in brain to blood in Han-Wistar rat at 2 mg/kg, po; assay type: ADME, organism-based

IC50 [1] [nM] | IC50 [2] [nM] | CLH [3] [mL/min/g] | logD [4] | solubility at 4 h [5] [µg/mL] | SMILES | also measured
12.6 | 631 |  |  |  | CCOc1nc(Nc2ccc(C(=O)N3CCOCC3)cc2OC(C)C)nc2[nH]ccc12 | 
63.1 | 158 | 1.1 | 4.3 | 6.2 (≈ 15.1 µM) | CCOc1nc(Nc2ccc(C(=O)N3CC4(COC4)C3)cc2OC)nc2[nH]ccc12 | 
15.8 |  |  |  |  | CCOc1nc(Nc2ccc(C(=O)N3CCN(C)CC3)cc2OC)nc2[nH]ccc12 | 
6.31 | 316 | 1.1 |  | 39.7 (≈ 96 µM) | CCOc1nc(Nc2ccc(C(=O)N3CCC(F)CC3)cc2OC)nc2[nH]ccc12 | 
63.1 | 200 | 1.5 | 5.7 | 4.4 (≈ 10.3 µM) | CCOc1nc(Nc2ccc(C(=O)N3C[C@@H](C)O[C@@H](C)C3)cc2OC)nc2[nH]ccc12 | 
7.94 | 100 | 1.4 | 5 | 154 (≈ 374 µM) | CCOc1nc(Nc2ccc(C(=O)N3CCOC[C@@H]3C)cc2OC)nc2[nH]ccc12 | Ratio [6]: 1.8
15.8 | 79.4 | 0.8 | 5.1 | 78.8 (≈ 192 µM) | CCOc1nc(Nc2ccc(C(=O)N3CCOC[C@H]3C)cc2OC)nc2[nH]ccc12 | Ratio [6]: 2.2

Second part, the compound before the results:

SMILES | IC50 [1] [nM] | IC50 [2] [nM] | CLH [3] [mL/min/g] | logD [4] | solubility at 4 h [5] [µg/mL] | also measured
CCOc1nc(Nc2ccc(C(=O)N3CCN4CCC[C@H]4C3)cc2OC)nc2[nH]ccc12 |  |  | 3.2 | 4.9 | 309 (≈ 709 µM) | 
CCOc1nc(Nc2ccc(C(=O)N3CCN(C)CC3)cc2F)nc2[nH]ccc12 | 12.6 | 158 |  |  |  | 
CCOc1nc(Nc2ccc(C(=O)N3CCN(C)CC3)cc2Cl)nc2[nH]ccc12 | 12.6 | 251 |  |  |  | 
CCOc1nc(Nc2ccc(C(=O)NCC(C)(C)O)cc2OC)nc2[nH]ccc12 | 12.6 | 126 | 0.8 | 4.1 | 25.5 (≈ 63.8 µM) | Ratio [6]: 3.8
CCOc1nc(Nc2ccc(C(=O)N3CCC4(CC3)CN(C)C4)cc2OC)nc2[nH]ccc12 | 6.31 | 63.1 | < 0.777 | 3 | 621 (≈ 1380 µM) | Ratio [6]: 5
CCOc1nc(Nc2ccc(C(=O)N3CCOCC3)cc2)nc2[nH]ccc12 | 7.94 | 63.1 |  | 3.9 | 1.7 (≈ 4.63 µM) | inhibition [7]: > 50%; inhibition [8]: > 50%; inhibition [9]: > 50%; Papp [10]: 51 ×10⁻⁶ cm/s; inhibition [11]: > 50%; inhibition [12]: > 50%
CCOc1nc(Nc2ccc(C(=O)N3CCN(C)CC3)cc2)nc2[nH]ccc12 | 12.6 | 79.4 |  |  |  | 
CCOc1nc(Nc2ccc(C(=O)N3CCN(C)CC3)cc2N(C)C)nc2[nH]ccc12 | 200 | 3160 |  |  |  | 
CCOc1nc(Nc2ccc(C(=O)N3CCN(C)CC3)cc2OC(F)F)nc2[nH]ccc12 | < 0.158 | 158 |  |  |  | 
CCOc1nc(Nc2ccc(C(=O)N3CCN4CCC[C@@H]4C3)cc2OC)nc2[nH]ccc12 |  |  | 2.5 | 4.9 | 300 (≈ 687 µM) | fraction unbound [13]: < 0.005; AUCt/dose [14]: 487 ng·h/g/mg/kg; AUCt/dose [15]: 246 ng·h/g/mg/kg; Kp [16]: 0.51
CCOc1cc(C(=O)N2CCN(C)CC2)ccc1Nc1nc(OCC)c2cc[nH]c2n1 | 10 | 126 |  |  |  | 
NC(=O)c1ccc(Nc2nc(NCC(F)(F)F)c3cc[nH]c3n2)cc1 | 12.6 | 50.1 |  | 2.8 | 8.6 (≈ 24.6 µM) | inhibition [7]: > 50%; inhibition [8]: > 50%; inhibition [9]: > 50%; Papp [10]: 3.6 ×10⁻⁶ cm/s; inhibition [11]: > 50%; inhibition [12]: > 50%
